Experimental data published in patent publication EP3928779A1 (Chugai Seiyaku Kabushiki Kaisha, priority 2014, dated 2016).

system: rat small-intestinal brush border membrane vesicles; assay: Inhibitory effect on 33PO4 uptake into rat small-intestinal brush border membrane vesicles (rapid filtration method); type: biochemical; settings: 33PO4 uptake into rat small-intestinal BBMVs; test compound 1 µM; reacted for 60 seconds
Procedure: Brush border membrane vesicles (BBMVs) were prepared using the upper region of the small intestine of each Wistar female rat (4-5 weeks old). […] The ^33PO4 transport activity of the small-intestinal BBMVs was determined by the rapid filtration method. […] Then, ice-cold buffer C (110 mM NaCl, 1 mM KH2PO4, and 10 mM HEPES (pH 7.5)) was added to each reaction mixture, which was immediately suctionfiltered through a Millipore filter. The filter was washed with buffer C, and each sample was then dissolved in a liquid scintillator. The amount of ^33PO4 uptake into BBMVs was measured using a liquid scintillation counter. […]

Row | SMILES | Rate of uptake inhibition (%) (1 µM)
1 | C[C@]12CCCN1N(Cc1cccc(F)c1F)C(=O)C(C(=O)Nc1ccc(C(F)(F)F)cc1-c1cnc(N3CC4(COC4)C3)c(C#N)c1)=C2O [Example 111, (4aR)-N-[2-[5-Cyano-6-(2-oxa-6-azaspiro[3.3]heptan-6-yl)pyridin-3-yl]-4-(trifluoromethyl)phenyl]-1-[(2,3-difluorophenyl)methyl]-4-hydroxy-4a-methyl-2-oxo-6.7-dihydro-5H-pyrrolo[1,2-b]pyridazine-3-carboxamide] | 56%
2 | COC(=O)CN(C)c1ncc(-c2cc(C(F)(F)F)ccc2NC(=O)C2=C(O)[C@@]3(C)CCCN3N(Cc3cccc(F)c3F)C2=O)cc1C#N [Example 112, Methyl 2-[[5-[2-[[(4aR)-1-[(2,3-difluorophenyl)methyl]-4-hydroxy-4a-methyl-2-oxo-6,7-dihydro-5H-pyrrolo[1,2-b]pyridazine-3-carbonyl]aminol-5-(trifluoromethyl)phenyl]-3-cyanopyridin-2-yl-methylamino] acetate] | 43%
3 | CSc1cc(-c2cc(C(F)(F)F)ccc2NC(=O)C2=C(O)[C@@]3(C)CCCN3N(Cc3cccc(F)c3F)C2=O)cnc1C#N [Example 113, (4aR)-N-[2-(6-Cyano-5-methylsulfanylpyridin-3-yl)-4-(trifluoromethyl)phenyl]-1-[(2,3-difluorophenyl)methyl]-4-hydroxy-4a-methyl-2-oxo-6,7-dihydro-5H-pyrrolo[1,2-b]pyridazine-3-carboxamide] | 84%
4 | CSc1ccc(-c2cc(C(F)(F)F)ccc2NC(=O)C2=C(O)[C@@]3(C)CCCN3N(Cc3ccc(CCCCCCC(=O)O)c(F)c3F)C2=O)cn1 [Example 115, 7-[4-[[(4aR)-4-1-Hydroxy-4a-methyl-3-[[2-(6-methylsulfanylpyridin-3-yl)-4-(trifluoromethyl)phenyl]carbamoyl]-2-oxo-6,7-dihydro-5H-pyrrolo[1,2-b]pyridazin-1-yl]methyl]-2,3-difluorophenyl]heptanoate] | 85%
5 | C[C@]12CCCN1N(Cc1ccc(CCCCCCC(=O)O)c(F)c1F)C(=O)C(C(=O)Nc1ccc(Cl)cc1-c1ccc(C(F)(F)F)nc1)=C2O [Example 116, 7-[4-[[(4aR)-3-[[4-Chloro-2-[6-(trifluoromethyl)pyridin-3-yl]phenyl]carbarnoyl]-4-hydroxy-4a-methyl-2-oxo-6,7-dihydro-5H-pyrrolo[1,2-b]pyridazin-1-yl]methyl]-2,3-difluorophenyl]heptanoate] | 72%
6 | CSc1ccc(-c2cc(C(F)(F)F)ccc2NC(=O)C2=C(O)[C@@]3(C)CCCN3N(Cc3ccc(C#CCCCCC(=O)O)c(F)c3F)C2=O)cn1 [Example 117, 7-[4-[[(4aR)-4-Hydroxy-4a-methyl-3-[[2-(6-methylsulfanylpyridin-3-yl)-4-(trifluoromethyl)phenyl]carbamoyl]-2-oxo-6.7-dihydro-5H-pyrrolo[1.2-b]pyridazin-1-yl]methyl]-2,3-difluorophenyl]hept-6-ynoate] | 78%
7 | CSc1ncc(-c2cc(C(F)(F)F)ccc2NC(=O)C2=C(O)[C@@]3(C)CCCN3N(Cc3ccc(C#CCCCCC(=O)O)c(F)c3F)C2=O)cn1 [Example 118] | 81%
8 | C[C@]12CCCN1N(Cc1ccc(C#CCCCCC(=O)O)c(F)c1F)C(=O)C(C(=O)Nc1ccc(C(F)(F)F)cc1-c1cncc(C(F)(F)F)c1)=C2O [Example 119, 7-[4-[[(4aR)-4-Hydroxy-4a-methyl-2-oxo-3-[[4-(trifluoromethyl)-2-[5-(trifluoromethyl)pyridin-3-yl]phenyl]carbamoyl]-6.7-dihydro-5H-pyrrolo[1,2-b]pyridazin-1-yl]methyl]-2.3-difluorophenyl]hept-6-ynoate] | 71%
9 | CSc1ccc(-c2cc(C(F)(F)F)ccc2NC(=O)C2=C(O)[C@@]3(C)CCCN3N(Cc3ccc(OCCCCOC[C@H](O)CO)c(F)c3F)C2=O)cn1 [Example 120, (4aR)-1-[[4-[4-[(2R)-2,3-Dihydroxypropoxy]butoxy]-2,3-difluorophenyl]methyl]-4-hydroxy-4a-methyl-N-[2-(6-methylsulfanylpyridin-3-yl)-4-(trifluoromethyl)phenyl]-2-oxo-6,7-dihydro-5H-pyrrolo[1,2-b]pyridazine-3-carboxamide] | 66%
10 | C[C@]12CCCN1N(Cc1ccc(OCCCCOC[C@H](O)CO)c(F)c1F)C(=O)C(C(=O)Nc1ccc(Cl)cc1-c1ccc(C(F)(F)F)nc1)=C2O [Example 121, (4aR)-N-[4-Chloro-2-[6-(trifluoromethyl)pyridin-3-yl]phenyl]-1-[[4-[4-[(2R)-2,3-dihydroxypropoxy]butoxy]-2,3-difluorophenyl]methyl]-4-hydroxy-4a-methyl-2-oxo-6,7-dihydro-5H-pyrrolo[1,2-b]pyridazine-3-carboxamide] | 72%
11 | C[C@]12CCCN1N(Cc1cccc(F)c1F)C(=O)C(C(=O)Nc1ccc(Br)cc1-c1ccc(Cl)nc1)=C2O [Example 122, (4aR)-N-[4-Bromo-2-(6-chloropyridin-3-yl)phenyl]-1-[(2,3-difluorophenyl)methyl]-4-hydroxy-4a-methyl-2-oxo-6,7-dihydro-5H-pyrrolo[1,2-b]pyridazine-3-carboxamide] | 82%
12 | COc1cccc(-c2cc(C(F)(F)F)ccc2NC(=O)C2=C(O)[C@@]3(C)CCCN3N(Cc3ccc(C#CCOCCCCO)c(F)c3F)C2=O)c1OC [Example 123, (4aR)-1-[[2,3-Difluoro-4-[3-(4-hydroxybutoxy)prop-1-ynil]phenyl]methyl)-N-[2-(2.3-dimethoxyphenyl)-4-(trifluoromethyl)phenyl]-4-hydroxy-4a-methyl-2-oxo-6,7-dihydro-5H-pyrrolo[1,2-b]pyridazine-3-carboxamide] | 87%
13 | C[C@]12CCCN1N(Cc1c(F)cc(C#CCCCCCOC[C@H](O)[C@@H](O)CO)cc1F)C(=O)C(C(=O)Nc1ccc(C(F)(F)F)cc1-c1ccc(C(F)(F)F)nc1)=C2O [Example 124] | 81%
14 | C[C@]12CCCN1N(Cc1c(F)cc(CCCCCCCOC[C@H](O)[C@@H](O)CO)cc1F)C(=O)C(C(=O)Nc1ccc(C(F)(F)F)cc1-c1ccc(C(F)(F)F)nc1)=C2O [Example 125, (4aR)-1-[[2,6-Difluoro-4-[7-[(2S,3S)-2,3,4-trihydroxybutoxy]heptyl]phenyl]methyl]-4-hydroxy-4a-methyl-2-oxo-N-[4-(trifluoromethyl)-2-[6-(trifluoromethyl)pyridin-3-yl]phenyl]-6,7-dihydro-5H-pyrrolo[1,2-b]pyridazine-3-carboxamide] | 76%
15 | C#Cc1ccc(CN2C(=O)C(C(=O)Nc3ccc(C(F)(F)F)cc3-c3cc(C(F)(F)F)ncn3)=C(O)[C@@]3(C)CCCN23)c(F)c1F [Example 126] | 71%
16 | COc1cccc(-c2cc(C(F)(F)F)ccc2NC(=O)C2=C(O)[C@@]3(C)CCCN3N(Cc3ccc(C#CCOCCCO)c(F)c3F)C2=O)c1OC [Example 127] | 95%
17 | C[C@]12CCCN1N(Cc1ccc(C#CCOCCCCO)c(F)c1F)C(=O)C(C(=O)Nc1ccc(C(F)(F)F)cc1-c1ccc(C(F)(F)F)nc1)=C2O [Example 128] | 72%
18 | C[C@]12CCCN1N(Cc1c(F)cc(C#CC3(O)CCCC3)cc1F)C(=O)C(C(=O)Nc1ccc(C(F)(F)F)cc1-c1ccc(C(F)(F)F)nc1)=C2O [Example 130] | 72%
19 | C[C@]12CCCN1N(Cc1ccc(C#CCN3CCCC3=O)c(F)c1F)C(=O)C(C(=O)Nc1ccc(Br)c(F)c1)=C2O [Example 131] | 87%
20 | C[C@]12CCCN1N(Cc1c(F)cc(C#CCN3CCOCC3)cc1F)C(=O)C(C(=O)Nc1ccc(C(F)(F)F)cc1-c1ccc(C(F)(F)F)nc1)=C2O [Example 132] | 71%
21 | COc1cccc(-c2cc(C(F)(F)F)ccc2NC(=O)C2=C(O)[C@@]3(C)CCCN3N(Cc3ccc(C#CCCCCO)c(F)c3F)C2=O)c1OC [Example 135] | 90%
22 | COc1cccc(-c2cc(C(F)(F)F)ccc2NC(=O)C2=C(O)[C@@]3(C)CCCN3N(Cc3ccc(C#CCOCCOCCOCCO)c(F)c3F)C2=O)c1OC [Example 136] | 80%
23 | COc1cccc(-c2cc(C(F)(F)F)ccc2NC(=O)C2=C(O)[C@@]3(C)CCCN3N(Cc3ccc(C#CCOCCO)c(F)c3F)C2=O)c1OC [Example 137] | 92%
24 | COc1cccc(-c2cc(C(F)(F)F)ccc2NC(=O)C2=C(O)[C@@]3(C)CCCN3N(Cc3ccc(C#CCCCO)c(F)c3F)C2=O)c1OC [Example 138] | 93%
25 | COc1cccc(-c2cc(C(F)(F)F)ccc2NC(=O)C2=C(O)[C@@]3(C)CCCN3N(Cc3ccc(C#CCOCCOCCO)c(F)c3F)C2=O)c1OC [Example 139] | 88%
26 | C[C@]12CCCN1N(Cc1ccc(CCCOCCCO)c(F)c1F)C(=O)C(C(=O)Nc1ccc(C(F)(F)F)cc1-c1ccc(C(F)(F)F)nc1)=C2O [Example 141] | 83%
27 | COc1cccc(-c2cc(C(F)(F)F)ccc2NC(=O)C2=C(O)[C@@]3(C)CCCN3N(Cc3ccc(CCCOCCOCCOCCO)c(F)c3F)C2=O)c1OC [Example 142] | 76%
28 | C[C@]12CCCN1N(Cc1c(F)cc(C#CCCCCOC[C@H](O)CO)cc1F)C(=O)C(C(=O)Nc1ccc(C(F)(F)F)cc1-c1ccc(C(F)(F)F)nc1)=C2O.[Na+] [Example 143] | 71%
29 | C[C@]12CCCN1N(Cc1c(F)cc(C#CCCOC[C@H](O)CO)cc1F)C(=O)C(C(=O)Nc1ccc(C(F)(F)F)cc1-c1ccc(C(F)(F)F)nc1)=C2O [Example 145] | 78%
